Measured values: patent US20230011869A1 (Hoffmann-La Roche Inc., priority 2018, published 2023)
Where a name gives a salt, the structure may show the parent alone.

The molecules below were run on Acinetobacter baumannii ATCC17978 (assay: Antimicrobial susceptibility testing: 90% growth inhibitory concentration (IC90) determination, Iso-Sensitest broth). Conditions: 90% growth inhibitory concentration, Acinetobacter baumannii ATCC17978, Iso-Sensitest broth, OD 600 nm over 16 h; read-out: ATCC17978 IC90.
Assay type: cell-based
Outline: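 A. baumannii ATCC17978 grown in Iso-Sensitest broth across 10 compound concentrations at 35±2 °C.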

**Q.** How did the IC90 turn out when `COc1ccc(-c2cnc3c(Nc4ccc(C(=O)N5CCN(C(=O)[C@H]6CCN6)CC5)c(C)c4)nccn23)cc1F` [Example 522, [4-[(2R)-azetidine-2-carbonyl]piperazin-1-yl]-[4-[[3-(3-fluoro-4-methoxyphenyl)imidazo[1,2-a]pyrazin-8-yl]amino]-2-methylphenyl]methanone; hy-drochloride] was run?
**A.** 370 nM

**Q.** With `Cc1cc(Nc2nccn3c(-c4ccc(OCC#N)c(F)c4Cl)cnc23)ccc1C(=O)N1CCC(C(=O)N2CCN[C@@H](CO)C2)CC1` [Example 539, 2-[3-chloro-2-fluoro-4-[8-[4-[4-[(3R)-3-(hydroxymethyl)piperazine-1-carbonyl]piperidine-1-carbonyl]-3-methylanilino]imidazo[1,2-a]pyrazin-3-yl]phenoxy]acetonitrile; for-mic acid] as the molecule, how does the IC90 read?
**A.** 88 nM

Same assay, conditions: Acinetobacter baumannii, ATCC17978, 16 h, read-out: ATCC17978 IC90, 90% growth inhibitory concentration, Acinetobacter baumannii ATCC17978, Iso-Sensitest broth, OD 600 nm over 16 h

**Q.** `Cc1cc(Nc2nccn3c(-c4ccc(OC(F)F)cc4)cnc23)ccc1C(=O)N1CCN(C(=O)[C@H]2CCNC[C@H]2O)CC1` [Example 511, [4-[[3-[4-(difluoromethoxy)phenyl]imi-dazo[1,2-a]pyrazin-8-yl]amino]-2-methylphenyl]-[4-[(3S,4S)-3-hydroxypiperidine-4-carbonyl]piperazin-1-yl]methanone] was tested. Which IC90 did it give?
**A.** 560 nM

**Q.** With `Cc1cc(Nc2nccn3c(-c4ccc(OC(F)F)cc4)cnc23)ccc1C(=O)N1CCN(C(=O)[C@H]2NCC[C@H]2O)CC1` [Example 512, [4-[[3-[4-(difluoromethoxy)phenyl]imi-dazo[1,2-a]pyrazin-8-yl]amino]-2-methylphenyl]-[4-[(2S,3R)-3-hydroxypyrrolidine-2-carbonyl]piperazin-1-yl]methanone; hydrochloride] as the molecule, how does the IC90 read?
**A.** 570 nM

**Q.** Which IC90 does the source give for `Cc1cc(Nc2nccn3c(-c4ccc(OC(F)F)cc4)cnc23)ccc1C(=O)N1CCN(C(=O)[C@@H](N)CCCN)CC1` [Example 513, (2S)-2,5-diamino-1-[4-[4-[[3-[4-(difluoromethoxy)phenyl]imi-dazo[1,2-a]pyrazin-8-yl]amino]-2-methylbenzoyl]piperazin-1-yl]pentan-1-one; hydrochloride] here?
**A.** 610 nM

**Q.** For `COC(=O)C[C@H](N)C(=O)N1CCN(C(=O)c2ccc(Nc3nccn4c(-c5ccc(OC(F)F)cc5)cnc34)cc2C)CC1` [Example 514, methyl (3S)-3-amino-4-[4-[4-[[3-[4-(difluoromethoxy)phenyl]imi-dazo[1,2-a]pyrazin-8-yl]amino]-2-methylbenzoyl]piperazin-1-yl]-4-oxobutanoate; hydrochloride], which IC90 is on record?
**A.** 630 nM

**Q.** Which IC90 does the source give for `COc1ccc(-c2cnc3c(Nc4ccc(C(=O)N5CCN(C(=O)N6CCN[C@H](C(=O)O)C6)CC5)c(C)c4)nccn23)c(F)c1F` [Example 515, (2S)-4-[4-[4-[[3-(2,3-difluoro-4-methoxyphenyl)imidazo[1,2-a]pyrazin-8-yl]amino]-2-methylbenzoyl]piperazine-1-carbonyl]piperazine-2-carboxylic acid; formic acid] here?
**A.** 650 nM

**Q.** For `Cc1cc(Nc2nccn3c(-c4ccc(OC(F)F)cc4)cnc23)ccc1C(=O)N1CCN(C(=O)[C@@H]2CCNC[C@@H]2O)CC1` [Example 516, [4-[[3-[4-(difluoromethoxy)phenyl]imi-dazo[1,2-a]pyrazin-8-yl]amino]-2-methylphenyl]-[4-[(3R,4R)-3-hydroxypiperidine-4-carbonyl]piperazin-1-yl]methanone], which IC90 is on record?
**A.** 650 nM

**Q.** With `Cc1cc(Nc2nccn3c(-c4ccc(OC(F)F)cc4)cnc23)ccc1C(=O)N1CCN(C(=O)C2(C#N)CCNCC2)CC1` [Example 517, 4-[4-[4-[[3-[4-(difluoromethoxy)phenyl]imi-dazo[1,2-a]pyrazin-8-yl]amino]-2-methylbenzoyl]piperazine-1-carbonyl]piperidine-4-carbonitrile; hydrochloride] as the molecule, how does the IC90 read?
**A.** 660 nM

**Q.** For `Cc1cc(Nc2nccn3c(-c4ccc(OC(F)F)cc4)cnc23)ccc1C(=O)N1CCN(C(=O)N2CCNCC2)CC1` [Example 518, [4-[[3-[4-(difluoromethoxy)phenyl]imi-dazo[1,2-a]pyrazin-8-yl]amino]-2-methylphenyl]-[4-(piperazine-1-carbonyl)piperazin-1-yl]methanone; hydrochloride], which IC90 is on record?
**A.** 170 nM

**Q.** Which IC90 does the source give for `Cc1cc(Nc2nccn3c(-c4ccc(OC(F)F)cc4)cnc23)ccc1C(=O)N1CCN(C(=O)CCN)CC1` [Example 519, 3-amino-1-[4-[4-[[3-[4-(difluoromethoxy)phenyl]imi-dazo[1,2-a]pyrazin-8-yl]amino]-2-methylbenzoyl]piperazin-1-yl]propan-1-one; hydrochloride] here?
**A.** 410 nM

**Q.** Which IC90 does the source give for `Cc1cc(Nc2nccn3c(-c4ccc(OC(F)F)cc4)cnc23)ccc1C(=O)N1CCN(C(=O)NCCN(C)C)CC1` [Example 520, 4-[4-[[3-[4-(difluoromethoxy)phenyl]imi-dazo[1,2-a]pyrazin-8-yl]amino]-2-methylbenzoyl]-N-[2-(dimethylamino)ethyl]pipera-zine-1-carboxamide] here?
**A.** 310 nM

**Q.** For `Cc1cc(Nc2nccn3c(-c4ccc(OC(F)F)cc4)cnc23)ccc1C(=O)N1CCN(C(=O)[C@H]2CCN2)CC1` [Example 521, [4-[(2R)-azetidine-2-carbonyl]piperazin-1-yl]-[4-[[3-[4-(difluoromethoxy)phenyl]imi-dazo[1,2-a]pyrazin-8-yl]amino]-2-methylphenyl]methanone; hy-drochloride], which IC90 is on record?
**A.** 370 nM

**Q.** With `Cc1cc(Nc2nccn3c(-c4ccc(OC(F)F)cc4)cnc23)ccc1C(=O)N1CCN(C(=O)C2CCNCC2O)CC1` (stereo not drawn) [Example 523, [4-[[3-[4-(difluoromethoxy)phenyl]imi-dazo[1,2-a]pyrazin-8-yl]amino]-2-methylphenyl]-[4-(3-hydroxypiperidine-4-carbonyl)piperazin-1-yl]methanone; hydrochloride] as the molecule, how does the IC90 read?
**A.** 390 nM

**Q.** How did the IC90 turn out when `CNCCNC(=O)N1CCN(C(=O)c2ccc(Nc3nccn4c(-c5ccc(OC(F)F)cc5)cnc34)cc2C)CC1` [Example 524, 4-[4-[[3-[4-(difluoromethoxy)phenyl]imi-dazo[1,2-a]pyrazin-8-yl]amino]-2-methylbenzoyl]-N-[2-(methylamino)eth-yl]piperazine-1-carboxamide; hydrochloride] was run?
**A.** 470 nM

**Q.** For `Cc1cc(Nc2nccn3c(-c4ccc(OC(F)F)cc4)cnc23)ccc1C(=O)N1CCN(C(=O)[C@@H](N)CCC(N)=O)CC1` [Example 525, (4S)-4-amino-5-[4-[4-[[3-[4-(difluoromethoxy)phenyl]imi-dazo[1,2-a]pyrazin-8-yl]amino]-2-methylbenzoyl]piperazin-1-yl]-5-oxopentanamide; hydrochlo-ride], which IC90 is on record?
**A.** 510 nM

**Q.** `Cc1cc(Nc2nccn3c(-c4ccc(OC(F)F)cc4)cnc23)ccc1C(=O)N1CCN(C(=O)[C@@H](N)CO)CC1` [Example 526, (2S)-2-amino-1-[4-[4-[[3-[4-(difluoromethoxy)phenyl]imi-dazo[1,2-a]pyrazin-8-yl]amino]-2-methylbenzoyl]piperazin-1-yl]-3-hydroxypropan-1-one; hydrochloride] was tested. Which IC90 did it give?
**A.** 560 nM

**Q.** For `Cc1cc(Nc2nccn3c(-c4ccc(OC(F)F)cc4)cnc23)ccc1C(=O)N1CCN(C(=O)[C@@H](N)[C@@H](C)O)CC1` [Example 527, (2S,3R)-2-amino-1-[4-[4-[[3-[4-(difluoromethoxy)phenyl]imi-dazo[1,2-a]pyrazin-8-yl]amino]-2-methylbenzoyl]piperazin-1-yl]-3-hydroxybutan-1-one; hydrochloride], which IC90 is on record?
**A.** 600 nM

**Q.** `Cc1cc(Nc2nccn3c(-c4ccc(OC(F)F)cc4)cnc23)ccc1C(=O)N1CCN(C(=O)[C@@H](N)CC(N)=O)CC1` [Example 528, (3S)-3-amino-4-[4-[4-[[3-[4-(difluoromethoxy)phenyl]imi-dazo[1,2-a]pyrazin-8-yl]amino]-2-methylbenzoyl]piperazin-1-yl]-4-oxobutanamide; hydrochloride] was tested. Which IC90 did it give?
**A.** 610 nM

**Q.** How did the IC90 turn out when `Cc1cc(Nc2nccn3c(-c4ccc(OC(F)F)cc4)cnc23)ccc1C(=O)N1CCN(C(=O)[C@H]2C[C@H](O)CN2)CC1` [Example 529, [4-[[3-[4-(difluoromethoxy)phenyl]imi-dazo[1,2-a]pyrazin-8-yl]amino]-2-methylphenyl]-[4-[(2R,4S)-4-hydroxypyrrolidine-2-carbonyl]piperazin-1-yl]methanone; hydrochloride] was run?
**A.** 690 nM

**Q.** `COc1ccc(-c2cnc3c(Nc4ccc(C(=O)N5CCN(C(=O)[C@H](CCN)NC(=O)CC[C@H](N)C(=O)O)CC5)c(C)c4)nccn23)c(F)c1F` [Example 532, (2S)-2-amino-5-[[(2S)-4-amino-1-[4-[4-[[3-(2,3-difluoro-4-methoxyphenyl)imidazo[1,2-a]pyrazin-8-yl]amino]-2-methylbenzoyl]piperazin-1-yl]-1-oxobutan-2-yl]amino]-5-oxopentanoic acid; hydrochloride] was tested. Which IC90 did it give?
**A.** 1200 nM

**Q.** How did the IC90 turn out when `COc1ccc(-c2cnc3c(Nc4ccc(C(=O)N5CCN(C(=O)[C@H](CCCN)NC(=O)CC[C@H](N)C(=O)O)CC5)c(C)c4)nccn23)c(F)c1F` [Example 533, (2S)-2-amino-5-[[(2S)-5-amino-1-[4-[4-[[3-(2,3-difluoro-4-methoxyphenyl)imidazo[1,2-a]pyrazin-8-yl]amino]-2-methylbenzoyl]piperazin-1-yl]-1-oxopentan-2-yl]amino]-5-oxopentanoic acid; hydrochloride] was run?
**A.** 1500 nM

**Q.** For `COc1ccc(-c2cnc3c(Nc4ccc(C(=O)N5CCN(C(=O)[C@H](CCCCN)NC(=O)[C@@H](N)CCC(=O)O)CC5)c(C)c4)nccn23)c(F)c1F` [Example 537, (4S)-4-amino-5-[[(2S)-6-amino-1-[4-[4-[[3-(2,3-difluoro-4-methoxyphenyl)imidazo[1,2-a]pyrazin-8-yl]amino]-2-methylbenzoyl]piperazin-1-yl]-1-oxohexan-2-yl]amino]-5-oxopentanoic acid; hydrochloride], which IC90 is on record?
**A.** 4400 nM

**Q.** Which IC90 does the source give for `CCc1cc(Nc2nccn3c(-c4ccc(OCC#N)c(F)c4F)cnc23)ccc1C(=O)N1CCC(C(=O)N2CCN[C@@H](CO)C2)CC1` [Example 540, 2-[4-[8-[3-ethyl-4-[4-[(3R)-3-(hydroxymethyl)piperazine-1-carbonyl]piperidine-1-carbonyl]anilino]imidazo[1,2-a]pyrazin-3-yl]-2,3-difluorophenoxy]acetonitrile; 2,2,2-trifluoroacetic acid] here?
**A.** 90 nM
